The test system of data set [1] is hypoxic Chinese hamster ovary cells. Nature of the data set: Radiosensitization of hypoxic Chinese hamster ovary cells, radiation survival curves (Do, Dq, N). To be noted: for Do (mean lethal dose): hypoxic CHO cells, untreated controls 3.75-3.8 Gy; for Dq (quasi threshold dose): Dq = Do ln N, minimum dose necessary to appearance of cell killing. It counts as cell-based. The source says: As is known [T. W. Wong, G. F. Whitmore and S. Gulyas: Radiat. Res. 75, 541-555 (1978)], parameters derived from radiation survival curves can be used for characterization of modifying effect, e.g. the slope of the exponential portion of survival curve and the calculated mean lethal dose (Do) as well as the overall extrapolation number (N).
The dose multiplication radiosensitization (DMR) means the ability of a given compound to increase the slope of the survival curve and consequently to decrease the mean lethal dose (Do).
On the effect of dose-additive radiosensitization (DAR) there is a reduction in the shoulder region of radiation survival curves, and in the best cases the sigmoid type survival curves characteristic of mammalian cells change into exponential ones.
For the degree of radiation modification, the quasi threshold dose (Dq) can be used, as well. This dose represents the width of shoulder region of radiation survival curves (Dq =Do ln N). The meaning of this measure from radiobiological point of view is the minimal dose necessary to produce appreciable cell killing effect.
1. […] According to the literature data, studies were undertaken on the same test-systems [Chinese hamster ovary cells cultured in vitro (CHO) and under similar circumstances (oxygenic- and hypoxic conditions, α-MEM with 10% foetal calf serum)].
Experiments were undertaken with hypoxic Chinese hamster ovary cells.
4. Determination of the quasi threshold dose (Dq). These values indicate the minimum dose necessary to the appearance of the end point (cell killing) studied from biological point of view.

For data set [2] the following is noted: cited from earlier work.
Data set [3] can be described thus: Toxicity in test animals (CFLP mice), LD50 per os. To be noted: mouse, in vivo, po.
A further data set concerns hypoxic cells. As to conditions: literature (Wong et al. 1978); cited from earlier work.

We go through three molecules from patent US4652562A, “Quinoline derivatives and pharmaceutical compositions” (Egis Gyogyszergyar, priority 1985, dated 1987).

Structures are written as SMILES. Where only a bound is given, the exact number is not on record here.

Regarding `CN(C)C(=O)N=NC(=O)N(C)C` [Diamide, tetramethyl-diazene-dicarboxamide], the “Do (mean lethal dose)” value in data set [1] is 3.3 Gy. Besides, the “dose-multiplicative or dose-additive radiosensitization” value in data set [2] (0° C., depending on drug concentration, Harris et al. 1975) is reported as “either dose-multiplicative- or dose-additive-radiosensitization could be observed at a lower temperature (0° C.) depending on the drug concentration applied, but both effects did not appear simultaneously”. Also, the toxicity entry in data set [2] (37° C.) is “extremely toxic”.
As to `NC(=Nc1c([N+](=O)[O-])cnc2ccccc12)N1CCOCC1` [Example 1, N-(3-Nitro-4-quinolyl)-morpholino carboxamidine], the LD50 (commonly the dose at which mortality reaches 50%) in data set [3] is greater than 2000 mg/kg. Also, in data set [1], the “Dq (quasi threshold dose)” value worked out at 0 Gy and the “Do (mean lethal dose)” value was determined as 1.7 Gy.
Consider `COCC(O)Cn1ccnc1[N+](=O)[O-]` (stereo not shown) [Misonidazole, 3-methoxy-1-(2-nitro-1-imidazole-1-yl)-2-propanol], for which the results for the “Dq (quasi threshold dose)” value in data set [1] and in data set [1] (listed as misonidazole) were 5 Gy and “above 5 Gy”, respectively. Also, the “Do (mean lethal dose)” value in data set [1] was 2.5 Gy. In addition, in the data set on hypoxic cells, the “degree of dose-multiplicative and dose-additive radiosensitization” value is “only in a small degree”.
